Experiment [1] deals with JAK1/3 signaling to STAT6 in Ramos B cells. Put plainly: IL4 stimulation of JAK1/3 signaling to STAT6 in Ramos B cells (pSTAT6 Y641, FACS). The note with it: Homo sapiens; for inhibition at 0.2 µM: 0.2 uM compound, read-out: IL-4/STAT6 in Ramos Percent Inhibition at 0.2 uM; for inhibition at 1 µM: 1.0 uM compound, read-out: IL-4/STAT6 in Ramos Percent Inhibition at 1.0 uM. In kind it is cell-based. Summed up: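 Phospho-STAT6 Y641 was measured by FACS using a PE-labelled antibody after fixation (2% paraformaldehyde) and methanol permeabilization. Before this, Ramos cells were exposed to compound for 1 h, then to 15 ng IL4 for 15 min.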

For experiment [2], the target named is T1, JAK1 (Homo sapiens, UniProt P23458).
T1 construct: 5 μl of catalytic domain recombinant Kinase enzyme+Tyr peptide substrate (Invitrogen, CA); purchased Invitrogen
Put plainly: Z'-LYTE kinase assay JAK1. In kind it is biochemical. Summed up: (§1)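 Z′-LYTE FRET, Tyr6 peptide, recombinant catalytic domain + ATP, 1 h RT, 1% DMSO final, duplicates; protease development 1 h RT; fluorescence read.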

Experiment [3] has as its target T2, JAK2 (Homo sapiens, UniProt O60674).
T2 construct: 5 μl of catalytic domain recombinant Kinase enzyme+Tyr peptide substrate (Invitrogen, CA); purchased Invitrogen
In words: Z'-LYTE kinase assay JAK2. In kind it is biochemical. Summed up:
as §1

Experiment [4] concerns the target T3, TYK2 (Homo sapiens, UniProt P29597).
T3 construct: 5 μl of catalytic domain recombinant Kinase enzyme+Tyr peptide substrate (Invitrogen, CA); purchased Invitrogen
T3 sequence (P29597 897-1176 limits assumed): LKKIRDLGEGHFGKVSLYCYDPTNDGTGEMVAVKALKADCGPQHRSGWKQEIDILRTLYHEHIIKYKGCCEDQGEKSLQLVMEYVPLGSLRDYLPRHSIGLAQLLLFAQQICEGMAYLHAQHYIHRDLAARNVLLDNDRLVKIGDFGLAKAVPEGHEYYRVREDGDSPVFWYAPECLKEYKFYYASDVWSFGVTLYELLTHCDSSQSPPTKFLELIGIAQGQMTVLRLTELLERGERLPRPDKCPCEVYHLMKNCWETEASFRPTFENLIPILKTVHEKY
In words: Z'-LYTE kinase assay TYK2. In kind it is biochemical. Summed up: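 IC50 derived by 4-parameter logistic fit of percent substrate phosphorylation relative to uninhibited wells. Tyr6 peptide phosphorylated by recombinant TYK2 catalytic domain for 1 h at room temperature (1% DMSO), cleaved by development protease 1 h, FRET emission ratio 445/520 nm.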

T2 sequence (O60674 849-1124 limits assumed): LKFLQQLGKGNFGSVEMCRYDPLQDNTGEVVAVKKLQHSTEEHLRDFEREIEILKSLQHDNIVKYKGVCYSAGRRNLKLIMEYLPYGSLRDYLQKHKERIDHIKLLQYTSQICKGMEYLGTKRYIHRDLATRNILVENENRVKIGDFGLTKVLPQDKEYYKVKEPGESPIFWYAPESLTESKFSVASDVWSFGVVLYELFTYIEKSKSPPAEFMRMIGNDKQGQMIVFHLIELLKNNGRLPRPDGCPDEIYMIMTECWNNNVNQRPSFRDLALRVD
T1 sequence (P23458 875-1153 limits assumed): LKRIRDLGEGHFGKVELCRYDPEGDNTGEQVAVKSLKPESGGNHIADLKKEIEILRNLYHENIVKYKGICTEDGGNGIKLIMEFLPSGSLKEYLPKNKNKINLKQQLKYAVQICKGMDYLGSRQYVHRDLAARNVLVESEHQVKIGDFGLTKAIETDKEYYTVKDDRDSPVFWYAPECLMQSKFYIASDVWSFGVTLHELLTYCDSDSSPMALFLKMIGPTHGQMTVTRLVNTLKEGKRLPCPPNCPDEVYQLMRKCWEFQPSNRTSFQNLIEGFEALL

The IC50 is the point on the concentration scale where inhibition reaches its midpoint. A high value points to weaker potency. Take `CC(=O)N1CCN(c2ccc(Nc3cc(NC4CC4)c(C(N)=O)cn3)cc2)CC1` [Example 2]: in experiment [1], the inhibition at 0.2 µM was found to be 29%. The inhibition at 1 µM in experiment [1] came out at 77%. Moreover, the IC50 in experiment [2], in experiment [3] and in experiment [4] was 100 to 1000 nM in each case.
`CC(=O)N1CCN(c2ccc(Nc3cc(NCc4cccc(F)c4)c(C(N)=O)cn3)cc2)CC1` [Example 229]: in experiment [1], the inhibition at 0.2 µM came out at 38%. For the same compound, the inhibition at 1 µM in experiment [1] was 67%. Further, the half-inhibitory concentration (IC50) in experiment [2] was 100 to 1000 nM; in experiment [3], 10 to 100 nM; in experiment [4] it was 100 to 1000 nM.

These data come from patent US20150353495A1 (PORTOLA PHARMACEUTICALS, INC., priority 2010, published 2015).
